From ChEMBL document CHEMBL1201862, “PubChem BioAssay data set” (2004) come the findings set out here.

SMILES strings stand for the structures.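 Following 48 hours of exposure in 96-well plates, responses at five concentrations were used to interpolate endpoints linearly. At the GI50, growth is halved.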 The source made the active and inactive calls. Cut-off read from the data, not from the text of the source: active = GI50 up to about 1.1 µM and inactive = higher. A value given as a limit tells only on which side of the number the result lay.

Some test systems named below: HOP-18; LXFL 529; KM-20L2; DMS-273; M19-MEL; DMS-114; SNB-78; RXF 631; XF498.
Assay in all cases: NCI anticancer screen, dose series, 48 h

On to `COc1ccccc1NC(=O)C1=C(C)NC(C)=C(C(=O)Nc2ccccc2OC)C1C1=CC=COC1`, for which the GI50 in the test on HOP-18 is 28.5 µM (inactive); in the test on LXFL 529 it was 11.1 µM (inactive); with KM-20L2, 6.07 µM (inactive); in the test with DMS-273 it was 6.81 µM (inactive); in the test with M19-MEL, 8.97 µM (inactive); with DMS-114, 7.24 µM (inactive). Also, the GI50 with SNB-78 was 23.3 µM (inactive).
As to `O=C1C=CC(=O)c2ccc(=O)ccc21`, the GI50 is 19.4 µM (inactive) with HOP-18; 2.54 µM (inactive) in the test with LXFL 529; 22.2 µM (inactive) in the test on KM-20L2; 25.5 µM (inactive) in the test on DMS-273; 7.55 µM (inactive) in the test with M19-MEL; 9.16 µM (inactive) with DMS-114. The GI50 with RXF 631 is 14.4 µM (inactive); with SNB-78, 25.9 µM (inactive).
In the case of `COC1CC(O)C(OC(=O)c2ccccc2)C(C)O1` (stereo unspecified), the GI50 in the test with XF498, in the test on HOP-18, with KM-20L2, with DMS-273, in the test on M19-MEL and in the test on RXF 631 was > 100 µM (inactive) throughout. In addition, the GI50 in the test with SNB-78 is > 100 µM (inactive).
With `O=C1c2ccccc2C2(O)N(c3ccccc3)C(=S)N(c3ccccc3)C12O` (stereo unspecified), the GI50 with HOP-18, in the test with LXFL 529, with KM-20L2, in the test on DMS-273, with M19-MEL and with DMS-114 was > 100 µM (inactive) throughout. The GI50 in the test on RXF 631 and with SNB-78 was > 100 µM (inactive) in each case.
Consider `Cc1ccc(S(=O)(=O)OCC/C(=C\[Si](C)(C)C)c2ccccc2)cc1`, for which the GI50 with XF498, in the test on HOP-18, in the test with LXFL 529, in the test with KM-20L2, with DMS-273 and with M19-MEL was > 100 µM (inactive) throughout. Also, the GI50 with DMS-114 is > 100 µM (inactive).
Turning to `N#C/C(=C1\OC(=N)C(c2ccccc2)C1=O)c1ccccc1` (stereo unspecified), the GI50 in the test on XF498 was 16.9 µM (inactive); in the test with HOP-18, 28.6 µM (inactive); with LXFL 529, 17.8 µM (inactive); in the test on KM-20L2 it was 98.6 µM (inactive); in the test on DMS-273, 49.9 µM (inactive); with M19-MEL, 24 µM (inactive). In addition, the results for the GI50 in the test with DMS-114 and with SNB-78 were 29.5 µM (inactive) and > 77.1 µM (inactive), respectively.
Regarding `Clc1cccc(N2CCN(CCN3CCc4c([nH]c5ccccc45)C3c3cccnc3)CC2)c1` (stereo unspecified), the GI50 is 40.3 µM (inactive) with XF498; > 100 µM (inactive) in the test with HOP-18; 63.7 µM (inactive) in the test on LXFL 529; 24 µM (inactive) in the test with KM-20L2; 37.9 µM (inactive) with DMS-273; > 100 µM (inactive) with M19-MEL. In addition, the GI50 was 73.5 µM (inactive) in the test with DMS-114 and > 100 µM (inactive) in the test on SNB-78.
Take `COc1ccc(NC(=O)CC/C(CC(=O)C(C)(C)C)=N\NC(=O)C(N)=O)cc1`: the GI50 in the test on LXFL 529 is 79.4 µM (inactive); in the test with KM-20L2, > 100 µM (inactive); with M19-MEL, > 100 µM (inactive); with DMS-114, > 100 µM (inactive).
Take `COC(=O)Nc1nc2cc(C(=O)c3cccs3)ccc2[nH]1` [NOCODAZOLE]: the GI50 in the test with XF498 is 0.0314 µM (active); in the test with HOP-18, 32.8 µM (inactive); with LXFL 529 it was 0.0532 µM (active); with KM-20L2, < 0.0132 µM (active); in the test on DMS-273 it was 0.0322 µM (active); with M19-MEL, 0.195 µM (active). Moreover, the GI50 in the test on DMS-114 was 0.0424 µM (active); with RXF 631, 0.07 µM (active); with SNB-78, 0.0322 µM (active).
As for `O=C(CC1C(=O)Nc2ccccc2S1(=O)=O)Nc1ccc(Cl)cc1` (stereo unspecified), the GI50 is 11.7 µM (inactive) with XF498; 22.9 µM (inactive) in the test on LXFL 529; > 100 µM (inactive) in the test with KM-20L2; 13.1 µM (inactive) with DMS-273; 24 µM (inactive) in the test with M19-MEL; 13.4 µM (inactive) in the test with DMS-114. Also, the GI50 in the test on RXF 631 was 27.6 µM (inactive); in the test on SNB-78 it was 21.7 µM (inactive).
Turning to `O=C(Nc1cc(Cl)c(Cl)cc1Cl)C(=O)C(C(=O)c1ccc(Cl)c(Cl)c1)C1OC(=O)c2ccccc21` (stereo unspecified), the GI50 in the test with LXFL 529 was 10.9 µM (inactive); with KM-20L2, 17.7 µM (inactive); with DMS-273 it was 16.9 µM (inactive); in the test with M19-MEL it was 17.6 µM (inactive); in the test with DMS-114, 13.7 µM (inactive); in the test on SNB-78 it was 31.8 µM (inactive).
On to `CCOC(=O)C1([Se]c2ccccc2)CCCC1=O` (stereo unspecified), for which the GI50 was 16.1 µM (inactive) with XF498; 20.1 µM (inactive) in the test on HOP-18; 14.8 µM (inactive) with LXFL 529; 36.6 µM (inactive) in the test with KM-20L2; 14.4 µM (inactive) with DMS-273; 19.7 µM (inactive) in the test with M19-MEL. In addition, the GI50 in the test on DMS-114 was 3.83 µM (inactive); in the test with RXF 631 it was 66.5 µM (inactive); in the test with SNB-78, 24 µM (inactive).
As for `O=C(N/N=C/c1cccc(F)c1)c1ccncc1`, the GI50 in the test on XF498, in the test on HOP-18, with LXFL 529, in the test with KM-20L2, in the test on DMS-273 and in the test with DMS-114 was > 100 µM (inactive) throughout.
`Cc1ccc(S(=O)(=O)N/N=C(/CC(=O)c2c(C)[n+]([O-])c3ccccc3[n+]2[O-])C(=O)Nc2ccc(C)c(C)c2)cc1`: the GI50 was > 100 µM (inactive) with HOP-18; > 100 µM (inactive) in the test on LXFL 529; > 100 µM (inactive) with KM-20L2; 44.8 µM (inactive) in the test on DMS-273; 17.9 µM (inactive) in the test with M19-MEL; 19.6 µM (inactive) with DMS-114. Moreover, the GI50 with RXF 631 and with SNB-78 was > 100 µM (inactive) throughout.
Regarding `N#C/C(=C/c1ccc2c(c1)OCO2)C(=O)c1ccccc1`, the GI50 in the test with XF498, with HOP-18, with LXFL 529, in the test with KM-20L2, in the test with M19-MEL and in the test with SNB-78 was > 100 µM (inactive) in each case.
Regarding `O=C(NC1CC1)c1c(O)[nH]c(=S)[nH]c1=O`, the GI50 in the test on HOP-18, in the test with LXFL 529, in the test on KM-20L2, in the test on M19-MEL, in the test on DMS-114 and in the test on RXF 631 was > 100 µM (inactive) in each case. In the test with SNB-78, the GI50 is > 100 µM (inactive).
In the case of `O=c1oc2c3ccc4ccccc4c3n(CCCN3CCCCC3)c2c2ccccc12`, the GI50 in the test with XF498 was 64.6 µM (inactive); in the test on HOP-18, > 100 µM (inactive); with LXFL 529, 62.7 µM (inactive); in the test with KM-20L2, 19.5 µM (inactive); in the test on M19-MEL, 63.2 µM (inactive); in the test with DMS-114, > 100 µM (inactive). Moreover, the GI50 with RXF 631 is 46.7 µM (inactive).
Turning to `Nc1nc(Cl)cc(NCC(O)CO)n1` (stereo unspecified), the GI50 in the test with XF498, in the test on HOP-18, with LXFL 529, in the test with KM-20L2, in the test with DMS-273 and in the test on M19-MEL was > 100 µM (inactive) in each case. For the same compound, the GI50 in the test with DMS-114 and in the test with SNB-78 was > 100 µM (inactive) throughout.
`Cc1ccccc1/C=C/C(=O)c1ccccc1`: the GI50 is 17.1 µM (inactive) in the test with XF498; 21.6 µM (inactive) in the test on LXFL 529; 17.7 µM (inactive) in the test with KM-20L2; 25.8 µM (inactive) in the test on DMS-273; 25 µM (inactive) in the test with M19-MEL; 20.9 µM (inactive) in the test on DMS-114. The GI50 in the test on RXF 631 was 19.4 µM (inactive); with SNB-78 it was 19.3 µM (inactive).
For `CCN(CC)CCCNC(=O)c1ccc([N+](=O)[O-])cc1O`, the GI50 with LXFL 529, in the test with KM-20L2, with DMS-273, in the test on DMS-114, with RXF 631 and with SNB-78 was > 100 µM (inactive) each time.
Regarding `COC(=O)C1CCCC2(C1)OCCO2` (stereo unspecified), the GI50 in the test with HOP-18, in the test on LXFL 529, in the test on KM-20L2, in the test on DMS-273, with M19-MEL and with DMS-114 was > 100 µM (inactive) each time. The GI50 in the test on RXF 631 and in the test with SNB-78 was > 100 µM (inactive) in each case.
With `C[C@H]1CCC2C(OC(=O)[C@@H]2CN(C)C)[C@]2(C)C(=O)C=CC12O` (stereo partly specified), the GI50 was 24.2 µM (inactive) with HOP-18; 3.01 µM (inactive) in the test on LXFL 529; 2.17 µM (inactive) with KM-20L2; 3.12 µM (inactive) in the test on DMS-273; 4.26 µM (inactive) with M19-MEL; 2.93 µM (inactive) in the test with DMS-114. Moreover, the GI50 with RXF 631 is 1.31 µM (inactive).
Regarding `CC(C)(C)C1=Nc2c(Br)cc(C(C)(C)C)cc2C(C(F)(F)F)(C(F)(F)F)O1`, the GI50 with XF498 was 19 µM (inactive); in the test on LXFL 529 it was 46.7 µM (inactive); with KM-20L2, > 100 µM (inactive); with DMS-273, 46 µM (inactive); with M19-MEL, 72.6 µM (inactive); in the test with DMS-114, 31.6 µM (inactive). In addition, the GI50 in the test on SNB-78 was > 100 µM (inactive).
Regarding `CC1(c2cccc(C3CC4(CCC3=O)OCCCCO4)c2)OCCO1` (stereo unspecified), the GI50 in the test on HOP-18 was > 100 µM (inactive); in the test on LXFL 529, > 100 µM (inactive); in the test with KM-20L2, > 100 µM (inactive); in the test with DMS-273 it was > 100 µM (inactive); in the test with M19-MEL, > 100 µM (inactive); with DMS-114 it was 7.96 µM (inactive). Further, the GI50 in the test with SNB-78 is > 100 µM (inactive).
Regarding `CCc1c(OC(C)=O)c2c(NC3OCC(OC(C)=O)C(OC(C)=O)C3OC(C)=O)nc(SC)nc2oc1=O` (stereo unspecified), the GI50 in the test on XF498, in the test on HOP-18, in the test on LXFL 529, in the test with KM-20L2, with M19-MEL and in the test with RXF 631 was > 100 µM (inactive) throughout. Further, the GI50 in the test with SNB-78 was > 100 µM (inactive).
